Measurements reported in US8778896B2, “Levoisovalerylspiramycin I, II or III, preparations, preparation methods and uses thereof” (Shenyang Tonglian Group Co., Ltd., priority 2010, dated 2014).
In brackets after ≈: the same amount, converted by molar mass.

Experiments:
[1] = test system: adult acute respiratory infections caused by sensitive bacteria; experiment: Clinical test versus Azithromycin, multi-center random double blind; type: in vivo; conditions: patients 18 to 65 years
Procedure: Adopt a multi-center, random, two blind, double simulation control test, which is carried out in 5 hospitals concurrently according to the unified clinical testing program.
1. Patients from 18 to 65 years old (men and women);
2. Sensitive acute respiratory infections caused by sensitive bacteria include acute bacterial pharyngitis, acute suppurative tonsillitis, acute tracheobronchitis, mild pneumonia and acute nasosinusitis etc;
3. Any subject shall sign an informed consent before being selected.
4. All subjects shall be contracepted in the research period and within at least 3 months upon being dosed.
1. Those with hepatic or renal insufficiency (Blood Cr>1.5 mg/dl and ALT>normal upper limit)
2. The women in pregnancy or lactation
3. Those with gastrointestinal tract diseases, who cannot take drugs orally.
4. Those who take antibacterial within one week before the selection.
According to statistics on the test results by statistics experts, the clinical efficacy (FAS) is: […]

[2] = test system: staphylococcus aureus16; experiment: MIC against the infecting test organism; type: cell-based, staphylococcus aureus; conditions: read-out: MIC
[3] = Acute toxicity on rats via oral administration; conditions: 4500 mg/kg
Procedure: (§1) Both mice and rats take drugs orally (levoisovalerylspiramycin I, II and III prepared in Embodiment 1)
After observing the mice and rats for two days before test, and those without abnormal conditions is carried out test. Don't give anything to eat to mice and rats overnight before test. […] […] Observe those taking drugs for one week for toxic reaction and death.

[4] = test system: staphylococcus aureus21; experiment: MIC against the infecting test organism; type: cell-based, staphylococcus aureus; conditions: read-out: MIC
[5] = test system: streptococcus pneumoniae57; experiment: MIC against the infecting test organism; type: cell-based, streptococcus pneumoniae; conditions: read-out: MIC
[6] = test system: enterococcus (106); experiment: Clinical isolates, agar double dilution method; type: cell-based; conditions: 106 clinical isolates of enterococcus; for MIC50: read-out: MIC50; for MIC90: read-out: MIC90
[7] = test system: pyogenic streptococcus 119; experiment: MIC against the infecting test organism; type: cell-based; conditions: read-out: MIC
[8] = test system: staphylococcus aureus76; experiment: MIC against the infecting test organism; type: cell-based, staphylococcus aureus; conditions: read-out: MIC
[9] = test system: pyogenic streptococcus 102; experiment: MIC against the infecting test organism; type: cell-based; conditions: read-out: MIC
[10] = test system: Chlamydia Trachomatis B/TW-5/OT; experiment: Chlamydia in vitro MIC, McCoy cells, immunofluorescence; type: cell-based; conditions: 48 hours, read-out: MIC
[11] = test system: streptococcus pneumoniae18; experiment: Curative effect on mouse with abdominal infection (ED50); type: in vivo, streptococcus pneumoniae; conditions: Streptococcus, 168 h, streptococcus pneumoniae18, challenging dose 9.6 × 10^4 CFU/0.5 ml, deaths in 7 days, Bliss, read-out: ED50
Procedure: (§2) Test method: preparation of infection bacterial liquid: taking out the test bacterial liquid which is kept in a refrigerator at −80[…] to room temperature for about 1 h, then inoculating streptococcus pneumonia, pyogenic streptococcus and enterococcus absorbing 0.1 ml bacterial liquid respectively to 2 ml MH broth (add 10% inactivated horse serum), and inoculating 0.1 ml bacterial liquid of staphylococcus aureus to 2 ml MH broth according to the same method above; putting it in an incubator at 37[…] to be cultivated for 18 h, to obtain original bacterial liquid; diluting the original bacterial liquid with 5% gastric mucin to make animals infected with 100% lethal bacteria, to obtain infection bacterial liquid.
(§3) The clinical route of administration of carrimycin is proposed to be oral administration, thus intragastric administration is adopted in carrimychin test. Levoisovalerylspiramycin I (obtained in Embodiment 1) and of crystalline compound of levoisovalerylspiramycin I (prepared in Embodiment 27) are fed to animals via […].
(§4) After the mice are infected, respectively feed each mouse 0.2 ml via intragastric administration at 0.5 to 6 h, and they have no adverse reaction. Observe the number of deaths in 7 days, and calculate the 50% effective dose (ED50) of each drug for the infected mouse and compare the protective effect of drugs by Bliss program.

[12] = test system: streptococcus pneumoniae3; experiment: as above; type: in vivo, streptococcus pneumoniae; conditions: Streptococcus, 168 h, streptococcus pneumoniae3, challenging dose 6.4 × 10^4 CFU/0.5 ml, deaths in 7 days, Bliss, read-out: ED50
Procedure: as §2, §3, §4

[13] = test system: streptococcus pneumoniae57; experiment: as above; type: in vivo, streptococcus pneumoniae; conditions: Streptococcus, 168 h, streptococcus pneumoniae57, challenging dose 8.8 × 10^4 CFU/0.5 ml, deaths in 7 days, Bliss, read-out: ED50
Procedure: as §2, §3, §4

[14] = test system: streptococcus pneumoniae18; experiment: MIC against the infecting test organism; type: cell-based, streptococcus pneumoniae; conditions: read-out: MIC
[15] = Acute toxicity on mice via oral administration; conditions: 4000 mg/kg
Procedure: as §1
After observing the mice and rats for two days before test, and those without abnormal conditions is carried out test. Don't give anything to eat to mice and rats overnight before test. […] In this test, feed drugs to mice and rats respectively as per 4000 mg/kg, wherein, mice follow 100 mg/ml, with intragastric administration capacity of 0.6-0.8 ml per one, while rats 173 mg/ml, with intragastric administration capacity of 0.8˜1.0 ml/50 g. Observe those taking drugs for one week for toxic reaction and death.

[16] = test system: hemophilus influenzae (37); experiment: Clinical isolates, agar double dilution method; type: cell-based; conditions: 37 clinical isolates of hemophilus influenzae; for MIC50 / MIC90: Haemophilus influenzae; for MIC50: read-out: MIC50; for MIC90: read-out: MIC90
[17] = test system: pyogenic streptococcus 772; experiment: Curative effect on mouse with abdominal infection (ED50); type: in vivo; conditions: Streptococcus, 772, 168 h, pyogenic streptococcus 772, challenging dose 6.9 × 10^3 CFU/0.5 ml, deaths in 7 days, Bliss, read-out: ED50
Procedure: as §2, §3, §4

[18] = test system: pyogenic streptococcus 119; experiment: as above; type: in vivo; conditions: Streptococcus, 119, 168 h, pyogenic streptococcus 119, challenging dose 4.9 × 10^4 CFU/0.5 ml, deaths in 7 days, Bliss, read-out: ED50
Procedure: as §2, §3, §4

[19] = test system: pyogenic streptococcus 102; experiment: as above; type: in vivo; conditions: Streptococcus, 102, 168 h, pyogenic streptococcus 102, challenging dose 7.8 × 10^4 CFU/0.5 ml, deaths in 7 days, Bliss, read-out: ED50
Procedure: as §2, §3, §4

[20] = test system: pyogenic streptococcus (93); experiment: Clinical isolates, agar double dilution method; type: cell-based; conditions: 93 clinical isolates of pyogenic streptococcus; for MIC50: read-out: MIC50; for MIC90: read-out: MIC90
[21] = test system: pyogenic streptococcus 772; experiment: MIC against the infecting test organism; type: cell-based; conditions: read-out: MIC

Row | SMILES | MIC [2] [µg/mL] | MIC [4] [µg/mL] | MIC [5] [µg/mL] | MIC50 [6] [µg/mL] | MIC90 [6] [µg/mL] | MIC [7] [µg/mL] | MIC [8] [µg/mL] | MIC [9] [µg/mL] | MIC [10] [µg/mL] | ED50 [11] [mg/kg] | ED50 [12] [mg/kg] | ED50 [13] [mg/kg] | MIC [14] [µg/mL] | MIC50 [16] [µg/mL] | MIC90 [16] [µg/mL] | ED50 [17] [mg/kg] | ED50 [18] [mg/kg] | ED50 [19] [mg/kg] | MIC50 [20] [µg/mL] | MIC90 [20] [µg/mL] | further results
1 | CCC(=O)OC1CC(=O)OC(C)C/C=C/C=C/C(OC2CCC(N(C)C)C(C)O2)C(C)CC(CC=O)C(OC2OC(C)C(OC3CC(C)(O)C(OC(=O)CC(C)C)C(C)O3)C(N(C)C)C2O)C1OC (centres unmarked) [Levoisovalerylspiramycin III, levoisovalerylspiramycin III] | 0.25 (≈ 0.254 µM) | 0.5 (≈ 0.509 µM) | 0.06 (≈ 0.061 µM) | 2 (≈ 2.03 µM) | 64 (≈ 65.1 µM) | 0.12 (≈ 0.122 µM) | 0.25 (≈ 0.254 µM) | 0.12 (≈ 0.122 µM) | 0.25 (≈ 0.254 µM) | 8.98 | 8.99 | 13.1 | 0.03 (≈ 0.0305 µM) | 0.12 (≈ 0.122 µM) | 1 (≈ 1.02 µM) | 24.6 | 52.8 | 63.2 | 0.25 (≈ 0.254 µM) | 32 (≈ 32.5 µM) | adverse reaction [1]: 2.5%; clearance of pathogens [1]: 97.56%; clinical efficacy (FAS) [1]: 92.30%; LD50 at 1 week ([3]; rat, in vivo, po): > 4500 mg/kg; Mortality rate (%) ([3]; rat, in vivo, po, 1 week): 15%; mortality ([3]; rat, in vivo, po, 1 week): 3; LD50 at 1 week ([15]; mouse, in vivo, po): > 4000 mg/kg; Mortality rate (%) ([15]; mouse, in vivo, po, 1 week): 35%; mortality ([15]; mouse, in vivo, po, 1 week): 7; MIC range [16]: 0.03 to 32 µg/mL; MIC [21]: 0.06 µg/mL (≈ 0.061 µM)
2 | CC[C@H]1OC(=O)[C@H](C)[C@@H](O[C@H]2C[C@@](C)(OC)[C@@H](O)[C@H](C)O2)[C@H](C)[C@@H](O[C@@H]2O[C@H](C)C[C@H](N(C)C)[C@H]2O)[C@](C)(O)C[C@@H](C)C(=O)[C@H](C)[C@@H](O)[C@]1(C)O [erythrocin, reference compound] | 1 (≈ 1.36 µM) | 4 (≈ 5.45 µM) | 0.25 (≈ 0.341 µM) | 4 (≈ 5.45 µM) | > 64 | 0.5 (≈ 0.681 µM) | 1 (≈ 1.36 µM) | 0.5 (≈ 0.681 µM) | 0.5 (≈ 0.681 µM) | 57.1 | 85.1 | 102 | 0.06 (≈ 0.0818 µM) | 0.06 (≈ 0.0818 µM) | 32 (≈ 43.6 µM) | 101 | 234 | 361 | 0.5 (≈ 0.681 µM) | > 64 | MIC [21]: 0.5 µg/mL (≈ 0.681 µM)
3 | COC1C(O)CC(=O)OC(C)C/C=C/C=C/C(OC2CCC(N(C)C)C(C)O2)C(C)CC(CC=O)C1OC1OC(C)C(OC2CC(C)(O)C(OC(=O)CC(C)C)C(C)O2)C(N(C)C)C1O (centres unmarked) [Levoisovalerylspiramycin I, levoisovalerylspiramycin I] | 0.5 (≈ 0.539 µM) | 0.5 (≈ 0.539 µM) | 0.06 (≈ 0.0647 µM) | 1 (≈ 1.08 µM) | 32 (≈ 34.5 µM) | 0.12 (≈ 0.129 µM) | 0.5 (≈ 0.539 µM) | 0.12 (≈ 0.129 µM) | 0.25 (≈ 0.27 µM) | 9.51 | 9.73 | 13.9 | 0.03 (≈ 0.0324 µM) | 0.12 (≈ 0.129 µM) | 1 (≈ 1.08 µM) | 26.1 | 57.2 | 66.4 | 0.25 (≈ 0.27 µM) | 32 (≈ 34.5 µM) | adverse reaction [1]: 2.5%; clearance of pathogens [1]: 97.56%; clinical efficacy (FAS) [1]: 92.30%; LD50 at 1 week ([3]; rat, in vivo, po): > 4500 mg/kg; Mortality rate (%) ([3]; rats, oral): 15%; mortality ([3]; rats, oral, deaths of 20 animals, observed one week): 3; Mortality rate (%) ([15]; mice, oral): 35%; mortality ([15]; mice, oral, deaths of 20 animals, observed one week): 7; LD50 at 1 week ([15]; mouse, in vivo, po): > 4000 mg/kg; MIC range [16]: 0.03 to 32 µg/mL; MIC [21]: 0.06 µg/mL (≈ 0.0647 µM)
4 | CC[C@H]1OC(=O)[C@H](C)[C@@H](O[C@H]2C[C@@](C)(OC)[C@@H](O)[C@H](C)O2)[C@H](C)[C@@H](O[C@@H]2O[C@H](C)C[C@H](N(C)C)[C@H]2O)[C@](C)(O)C[C@@H](C)CN(C)[C@H](C)[C@@H](O)[C@]1(C)O [azithromycin, reference compound] | 0.5 (≈ 0.668 µM) | 4 (≈ 5.34 µM) | 0.12 (≈ 0.16 µM) | 8 (≈ 10.7 µM) | > 64 | 0.25 (≈ 0.334 µM) | 1 (≈ 1.34 µM) | 0.5 (≈ 0.668 µM) | 0.5 (≈ 0.668 µM) | 14.9 | 18.3 | 19 | 0.06 (≈ 0.0801 µM) | 0.25 (≈ 0.334 µM) | 2 (≈ 2.67 µM) | 46.9 | 68.5 | 159 | 0.5 (≈ 0.668 µM) | > 64 | adverse reaction [1]: 7.6%; clearance of pathogens [1]: 92.86%; clinical efficacy (FAS) [1]: 89.61%; MIC [21]: 0.25 µg/mL (≈ 0.334 µM)
